Source: article PMC4728505 (Marine Drugs, 2015)
*1 amine or outer side, *2 acyl side, *3 side chain or, on linkers, in order; H or OH if unused. Where a SMILES comes first, the peptide text is derived from it. Bridges are numbered along the chain shown (N, C = ends). [ ]: non-standard residue; d: D form. NMehTyr = CN[C@@H](CCc1ccc(O)cc1)C(=O)O; hTyr = N[C@@H](CCc1ccc(O)cc1)C(=O)O; NMeA = CN[C@@H](C)C(=O)O; CO = O=C([*:1])[*:2]

What was measured:
[1] = test system: PP1 (from rabbit skeletal muscle); conditions: cited from earlier work; for PP1 inhibition reported (in words): PP1 from rabbit skeletal muscle
protein phosphatase 1 = biological target: T1, protein phosphatase 1 (Oryctolagus cuniculus, UniProt P62139); experiment: biochemical; format: biochemical; conditions: for PP1 inhibition (in words): acquired standards
T1 construct: purchased New England Biolabs
T1 sequence (P62139 whole entry): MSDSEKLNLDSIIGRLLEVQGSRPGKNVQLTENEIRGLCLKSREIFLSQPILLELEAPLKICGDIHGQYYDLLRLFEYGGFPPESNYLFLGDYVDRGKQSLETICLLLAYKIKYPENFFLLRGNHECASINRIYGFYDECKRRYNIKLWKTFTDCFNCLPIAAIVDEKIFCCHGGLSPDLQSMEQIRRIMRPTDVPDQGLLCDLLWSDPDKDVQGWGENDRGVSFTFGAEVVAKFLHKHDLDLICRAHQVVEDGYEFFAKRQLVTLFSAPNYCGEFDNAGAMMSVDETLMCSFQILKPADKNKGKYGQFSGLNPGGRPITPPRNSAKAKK

carboxypeptidase A [2] = biological target: T2, carboxypeptidase A (Bos taurus, UniProt P00730); experiment: Carboxypeptidase A inhibition assay; format: biochemical; conditions: acquired standards
T2 construct: purchased Sigma-Aldrich C9268
T2 sequence (P00730 111-419): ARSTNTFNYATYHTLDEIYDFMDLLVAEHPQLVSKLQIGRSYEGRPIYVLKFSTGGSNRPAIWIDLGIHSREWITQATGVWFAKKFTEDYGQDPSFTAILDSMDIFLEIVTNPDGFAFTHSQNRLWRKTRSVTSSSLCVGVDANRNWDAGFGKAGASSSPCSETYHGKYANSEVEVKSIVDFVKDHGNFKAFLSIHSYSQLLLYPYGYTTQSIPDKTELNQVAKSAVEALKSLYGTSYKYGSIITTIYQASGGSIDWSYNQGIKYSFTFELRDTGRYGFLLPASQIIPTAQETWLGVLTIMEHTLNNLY
From the text: The following reagents used for enzymatic assays were purchased from Sigma-Aldrich: trypsin (product number T0303), thrombin bovine plasma (T4648), elastase (E0258), carboxypeptidase A (C9268), aprotinine (A6103), N-p-tosyl-Gly-Pro-Lys-p-nitroanilide acetate salt (T6140), N-Succinyl-Gly-Gly-Phe-p-nitroanilide (S1899), 4-(2-Aminoethyl) benzenesulfonyl fluoride hydrochloride—AEBSF (A8456), elastatinal (E0881), N-Succinyl-Ala-Ala-Ala-p-nitroanilide (S4760), carboxypeptidase inhibitor—CPI (C0297), p-nitrophenyl phosphate disodium salt hexahydrate—p-NPP (71768), albumin bovine—BSA (A4503) and DL-dithiothreitol DTT (D0632).
APs were assayed for bioactivity by protein phosphatase 1, carboxypeptidase A, trypsin, elastase and thrombin inhibition assays as described in Mazur-Marzec et al. 2015 [50].

carboxypeptidase A [3] = biological target: T2, carboxypeptidase A; parameters: method as in PMID 11000037; conditions: read-out: CPA IC50 (converted); cited from earlier work

## CC[C@H](C)[C@@H]1NC(=O)[C@H](NC(=O)N[C@@H](CCCNC(=N)N)C(=O)O)CCCCNC(=O)[C@H](Cc2ccccc2)NC(=O)[C@H](CCc2ccc(O)cc2)N(C)C(=O)[C@H](CCc2ccc(O)cc2)NC1=O [Osc C] ({Arg-CO}-[dK]I[hTyr][NMehTyr]F; lactam 1-C)
[1]
  PP1 inhibition reported (in words): inhibition
  IC50: 900 nM

## CC[C@H](C)[C@@H]1NC(=O)[C@H](NC(=O)N[C@@H](Cc2ccc(O)cc2)C(=O)O)CCCCNC(=O)[C@H](Cc2ccccc2)NC(=O)[C@H](C)N(C)C(=O)[C@H](CCc2ccc(O)cc2)NC1=O [Oscillamide Y, Tyr + CO[Lys + Ile + Hty + MeAla + Phe]] ({Tyr-CO}-[dK]I[hTyr][NMeA]F; lactam 1-C)
Protein phosphatase 1
  IC50: 72.3 nM
  PP1 inhibition (in words): showed inhibition
Carboxypeptidase A [2]
  Activity against CPA (in words): active
[1]; at 100 μg/mL
  PP1 inhibition (in words): no effect

## CC[C@H](C)[C@@H]1NC(=O)[C@H](NC(=O)N[C@@H](CCCNC(=N)N)C(=O)O)CCCCNC(=O)[C@H]([C@@H](C)CC)NC(=O)[C@H](CCc2ccc(O)cc2)N(C)C(=O)[C@H](CCc2ccc(O)cc2)NC1=O [anabaenopeptin H] ({Arg-CO}-[dK]I[hTyr][NMehTyr]I; lactam 1-C)
Carboxypeptidase A [3]
  IC50: 3680 nM

## CSCC[C@@H]1NC(=O)[C@H](NC(=O)N[C@@H](CCCNC(=N)N)C(=O)O)CCCCNC(=O)[C@H](Cc2ccccc2)NC(=O)[C@H](C)N(C)C(=O)[C@H](CCc2ccc(O)cc2)NC1=O [oscillamide B] ({Arg-CO}-[dK]M[hTyr][NMeA]F; lactam 1-C)
[1]
  PP1 inhibition reported (in words): inhibition

## CC[C@H](C)[C@H](NC(=O)N[C@@H]1CCCCNC(=O)[C@H](Cc2ccccc2)NC(=O)[C@H](C)N(C)C(=O)[C@H](CCc2ccc(O)cc2)NC(=O)[C@H](C(C)C)NC1=O)C(=O)O [Anabaenopeptin J] ({Ile-CO}-[dK]V[hTyr][NMeA]F; lactam 1-C)
Protein phosphatase 1
  PP1 inhibition (in words): showed inhibition
Carboxypeptidase A [2]
  Activity against CPA (in words): active

## CC[C@H](C)[C@@H]1NC(=O)[C@H](NC(=O)N[C@@H](CCCNC(=N)N)C(=O)O)CCCCNC(=O)[C@H](Cc2ccccc2)NC(=O)[C@H](C)N(C)C(=O)[C@H](CCc2ccc(O)cc2)NC1=O [anabaenopeptin F] ({Arg-CO}-[dK]I[hTyr][NMeA]F; lactam 1-C)
[1]
  PP1 inhibition reported (in words): inhibition

## CC(C)C1NC(=O)C(NC(=O)NC(Cc2ccc(O)cc2)C(=O)O)CCCCNC(=O)C(Cc2ccccc2)NC(=O)C(C)N(C)C(=O)C(CCc2ccc(O)cc2)NC1=O (stereo not drawn) [Anabaenopeptin A, Tyr + CO[Lys + Val + Hty + MeAla + Phe]]
Protein phosphatase 1
  PP1 inhibition (in words): showed inhibition
[1]
  PP1 inhibition reported (in words): inhibition

## CC(C)[C@@H]1NC(=O)[C@H](NC(=O)N[C@@H](CCCNC(=N)N)C(=O)O)CCCCNC(=O)[C@H](Cc2ccccc2)NC(=O)[C@H](C)N(C)C(=O)[C@H](CCc2ccc(O)cc2)NC1=O [Anabaenopeptin B] ({Arg-CO}-[dK]V[hTyr][NMeA]F; lactam 1-C)
Protein phosphatase 1
  PP1 inhibition (in words): showed inhibition
[1]
  PP1 inhibition reported (in words): inhibition
